Reference: US7348437B2, “Proteomic analysis” (The Scripps Research Institute, priority 2004, dated 2008)

Tests used:
[1] = biological target: neprilysin (Homo sapiens, UniProt P08473); experiment: Inhibition of HxBP—Rh labeling of neprilysin in MUM-2B membrane proteome (competitive activity-based profiling, in-gel fluorescence); format: binding; conditions: 50 nM HxBP—Rh probe, three trials, 95% confidence limits 12-23 nM
Method: (§1) For labeling and detection of MPs using HxBP—Rh, the following technique can be used. […] Kidney and cancer cell proteomes, prepared as known to those having ordinary skill in the art, can be adjusted to 1 mg/ml in 50 mM Tris-HCl buffer (pH 8.0) prior to labeling. […] Labeled samples can be separated by SDS-PAGE, and visualized in-gel with a Hitachi FMBio IIe flatbed scanner (Mirabio). Integrated band intensities can be calculated from several independent labeling reactions, and averaged to provide the level of each enzyme activity in each sample.
(§2) For measuring the IC50 values for MP inhibitors using HxBP—Rh, the following technique can be used. IC50 values for neprilysin, dipeptidylpeptidase III (DPPIII), and leucine aminopeptidase (LAP) can be determined using Prism Software (Graph Pad) from dose-response curves of three trials at concentrations of GM6001 ranging from 0.001-20 μM and 50 nM HxBP—Rh probe. Neprilysin, DPPIII, and LAP assays can be conducted using MUM-2B membrane, MCF7 soluble, and mouse kidney soluble proteomes, respectively.
(§3) Right panels show the concentration-dependence of inhibition of HxBP—Rh labeling of by GM6001 (each data point corresponds to the average of three independent trials and is presented as a percentage of control reactions conducted without GM6001).

[2] = biological target: T1, MMP-2 (Homo sapiens, UniProt P08253); experiment: Activity-based labeling of purified MMP-2 added to mouse kidney proteome; conditions: GM6001 5 μM or TIMP-1 200 ng, HxBP—Rh 100 nM
T1 sequence (P08253 110-660): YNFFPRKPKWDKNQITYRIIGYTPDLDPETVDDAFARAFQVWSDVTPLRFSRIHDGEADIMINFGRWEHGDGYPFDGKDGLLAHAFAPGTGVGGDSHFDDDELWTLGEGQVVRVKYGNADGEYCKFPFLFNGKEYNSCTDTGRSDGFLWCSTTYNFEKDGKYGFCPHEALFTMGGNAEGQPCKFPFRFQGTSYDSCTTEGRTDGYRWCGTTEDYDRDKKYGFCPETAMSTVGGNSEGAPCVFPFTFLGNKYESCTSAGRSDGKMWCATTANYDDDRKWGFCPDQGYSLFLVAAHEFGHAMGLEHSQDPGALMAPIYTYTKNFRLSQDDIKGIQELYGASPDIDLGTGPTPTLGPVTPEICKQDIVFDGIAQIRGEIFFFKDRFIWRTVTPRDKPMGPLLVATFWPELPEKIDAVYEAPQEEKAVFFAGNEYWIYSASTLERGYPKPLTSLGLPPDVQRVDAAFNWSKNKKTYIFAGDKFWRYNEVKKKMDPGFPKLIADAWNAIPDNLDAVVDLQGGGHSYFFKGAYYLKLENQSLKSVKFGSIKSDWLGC
Method: For labeling and detection of MPs using HxBP—Rh, the following technique can be used. Purified MMP-2 can be diluted in buffer 1 (30 ng of enzyme) and mixed with 100 nM HxBP—Rh in the presence or absence of 5 μM GM6001 or TIMP-1 (80 ng). These mixtures can be pre-incubated on ice for 15 min prior to irradiation at 365 nm for 1 hour (on ice) followed by quenching with one volume of standard 2× SDS/PAGE loading buffer (reducing). Kidney and cancer cell proteomes, prepared as known to those having ordinary skill in the art, can be adjusted to 1 mg/ml in 50 mM Tris-HCl buffer (pH 8.0) prior to labeling. […] Labeled samples can be separated by SDS-PAGE, and visualized in-gel with a Hitachi FMBio IIe flatbed scanner (Mirabio). Integrated band intensities can be calculated from several independent labeling reactions, and averaged to provide the level of each enzyme activity in each sample.
With the reference to FIG. 3A, purified MMP-2 (100 ng) or pro-MMP-2 (100 ng) were added to a mouse kidney proteome (15 μL, 1 μg protein/μL) and treated with HxBP—Rh (100 nM) for 15 min prior to photocrosslinking and analysis by SDS-PAGE and in-gel fluorescence scanning.
FIG. 3B illustrates HxBP—Rh labeling of a serial dilution of purified MMP-2 added to a mouse kidney proteome.

[3] = biological target: T2, dipeptidylpeptidase III (DPPIII) (Homo sapiens, UniProt Q9NY33); experiment: Inhibition of HxBP—Rh labeling of dipeptidylpeptidase III in MCF7 soluble proteome
T2 sequence (Q9NY33 1-737): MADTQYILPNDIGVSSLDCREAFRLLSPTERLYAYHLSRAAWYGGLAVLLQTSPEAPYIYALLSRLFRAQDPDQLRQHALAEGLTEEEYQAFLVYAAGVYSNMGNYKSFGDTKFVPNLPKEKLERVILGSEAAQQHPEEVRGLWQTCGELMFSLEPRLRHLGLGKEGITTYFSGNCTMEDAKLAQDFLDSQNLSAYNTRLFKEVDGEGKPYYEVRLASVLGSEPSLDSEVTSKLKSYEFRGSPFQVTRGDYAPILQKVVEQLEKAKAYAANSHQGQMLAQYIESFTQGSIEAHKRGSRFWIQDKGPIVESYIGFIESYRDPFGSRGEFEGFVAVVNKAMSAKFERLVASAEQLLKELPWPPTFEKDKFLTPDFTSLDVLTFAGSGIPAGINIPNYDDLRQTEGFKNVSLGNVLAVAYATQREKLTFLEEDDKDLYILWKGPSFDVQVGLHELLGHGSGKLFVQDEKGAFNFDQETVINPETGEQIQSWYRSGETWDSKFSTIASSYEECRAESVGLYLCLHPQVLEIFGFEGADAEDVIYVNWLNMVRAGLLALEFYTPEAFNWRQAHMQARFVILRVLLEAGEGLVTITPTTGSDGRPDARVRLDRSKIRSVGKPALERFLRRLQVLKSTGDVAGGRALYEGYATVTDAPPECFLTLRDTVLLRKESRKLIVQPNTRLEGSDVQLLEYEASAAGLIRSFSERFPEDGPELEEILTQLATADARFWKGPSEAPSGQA
Method: For labeling and detection of MPs using HxBP—Rh, the following technique can be used. […] Kidney and cancer cell proteomes, prepared as known to those having ordinary skill in the art, can be adjusted to 1 mg/ml in 50 mM Tris-HCl buffer (pH 8.0) prior to labeling. A portion of each cancer cell line proteome sample can be treated with PNGaseF (New England Biolabs) to provide deglycosylated proteomes, as known to those having ordinary skill in the art. Labeled samples can be separated by SDS-PAGE, and visualized in-gel with a Hitachi FMBio IIe flatbed scanner (Mirabio). Integrated band intensities can be calculated from several independent labeling reactions, and averaged to provide the level of each enzyme activity in each sample.
as §2
Shown is a representative HxBP—Rh labeling (100 nM) profile of the soluble proteome from MCF-7 cells. […]

[4] = biological target: T3, leucine aminopeptidase (LAP) (Mus musculus, UniProt Q9CPY7); experiment: Inhibition of HxBP—Rh labeling of leucine aminopeptidase in mouse kidney soluble proteome
T3 sequence (Q9CPY7 1-519): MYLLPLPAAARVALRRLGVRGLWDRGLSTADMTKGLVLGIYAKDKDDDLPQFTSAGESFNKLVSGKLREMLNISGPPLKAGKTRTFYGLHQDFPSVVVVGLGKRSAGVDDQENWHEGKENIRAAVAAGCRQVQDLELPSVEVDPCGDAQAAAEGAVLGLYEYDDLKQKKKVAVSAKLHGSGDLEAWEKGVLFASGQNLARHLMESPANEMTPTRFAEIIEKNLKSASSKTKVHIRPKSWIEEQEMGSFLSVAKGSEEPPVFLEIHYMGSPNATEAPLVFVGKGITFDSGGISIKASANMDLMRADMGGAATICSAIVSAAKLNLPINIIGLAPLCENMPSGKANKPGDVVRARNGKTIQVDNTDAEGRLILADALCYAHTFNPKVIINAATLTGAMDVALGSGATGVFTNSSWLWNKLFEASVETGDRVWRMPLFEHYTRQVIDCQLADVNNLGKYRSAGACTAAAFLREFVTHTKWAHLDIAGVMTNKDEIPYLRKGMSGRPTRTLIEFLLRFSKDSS
Method: as §1, §2, §3

Sequence of neprilysin (P08473 whole entry): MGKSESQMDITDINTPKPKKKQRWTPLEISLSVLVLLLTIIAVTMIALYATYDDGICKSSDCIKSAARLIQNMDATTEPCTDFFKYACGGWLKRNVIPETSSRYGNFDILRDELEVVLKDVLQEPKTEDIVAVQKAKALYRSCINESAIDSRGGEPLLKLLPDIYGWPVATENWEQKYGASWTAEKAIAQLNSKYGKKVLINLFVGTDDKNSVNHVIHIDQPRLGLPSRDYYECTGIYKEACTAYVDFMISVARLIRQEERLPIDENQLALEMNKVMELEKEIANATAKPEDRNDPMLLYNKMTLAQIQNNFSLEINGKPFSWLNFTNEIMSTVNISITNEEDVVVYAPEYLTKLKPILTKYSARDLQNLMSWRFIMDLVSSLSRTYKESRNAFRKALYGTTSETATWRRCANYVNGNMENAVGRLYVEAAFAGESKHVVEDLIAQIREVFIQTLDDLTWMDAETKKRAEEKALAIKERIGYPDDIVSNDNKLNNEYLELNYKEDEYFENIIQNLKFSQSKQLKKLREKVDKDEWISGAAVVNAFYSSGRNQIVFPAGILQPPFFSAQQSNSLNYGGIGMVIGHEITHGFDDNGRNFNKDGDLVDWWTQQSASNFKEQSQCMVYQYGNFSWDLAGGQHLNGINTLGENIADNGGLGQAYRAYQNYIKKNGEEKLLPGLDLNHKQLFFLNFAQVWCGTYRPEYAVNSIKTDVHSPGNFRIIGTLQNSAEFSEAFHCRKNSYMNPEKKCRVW

| IC50 [1] [nM] | IC50 [3] [nM] | Effect on HxBP—Rh labeling of ~80 kDa protein (DPPIII) ([3]; GM6001 5 μM, HxBP—Rh 100 nM, soluble proteome from MCF-7 cells) | IC50 [4] [nM] | Molecule | Effect on HxBP—Rh labeling of MMP-2 in whole proteome [2] |
| --- | --- | --- | --- | --- | --- |
| 17 | 76 | blocked | 111 | CNC(=O)[C@H](Cc1c[nH]c2ccccc12)NC(=O)[C@@H](CC(=O)NO)CC(C)C [GM6001] | blocked |
|  |  |  |  | TIMP-1: inhibitor of MMP-2 used to block probe labeling | blocked |
